According to PMC3800186 (Biochemistry, 2013):
Entries after “also recorded” stand apart in the source; their conditions may differ.

Columns and labels:
[1] = tested on: gp120 interaction with sCD4; details: read-out: IC50(SPR) sCD4, shown for comparison, ref ([19]) and ([30]); cited from earlier work
S375A gp120 = S375A gp120 (Human immunodeficiency virus type 1 group M subtype B, UniProt P35961, S370A); type: binding, HIV-1; details: immobilized S375A gp120, SPR
[2] = molecular target: S375A gp120 interaction with sCD4 (Human immunodeficiency virus type 1 group M subtype B, UniProt P35961, S370A); assay: SPR KR21/sCD4 competition over immobilized S375A gp120; type: binding, HIV-1; details: S375A versus WT
[3] = tested on: gp120 interaction with mAb 17b; details: read-out: IC50(SPR) mAb 17b, shown for comparison, ref ([19]) and ([30]); cited from earlier work
[4] = tested on: mutant gp120 (I423P) binding of F105 antibody; details: ref ([15], [48]); cited from earlier work
mutant gp120 (S375W) = details: ref ([15]); cited from earlier work

CC[C@H](C)[C@H](NC(=O)[C@@H](N)CCCNC(=N)N)C(=O)N[C@@H](CC(N)=O)C(=O)N[C@@H](CC(N)=O)C(=O)N[C@H](C(=O)N1C[C@@H](n2cc([C]34[CH]5[CH]6[CH]7[CH]3[Fe]6754389%10[CH]4[CH]3[CH]8[CH]9[CH]4%10)nn2)C[C@H]1C(=O)N[C@@H](Cc1c[nH]c2ccccc12)C(=O)NCCC(=O)N[C@@H](CCCCNC(=O)CCCC[C@@H]1SC[C@@H]2NC(=O)N[C@@H]21)C(=O)NCC(N)=O)[C@@H](C)CC (stereo partly drawn) [KR21, R^1-I^2-N^3-N^4-I^5-X^6-W^7-βA^8-BtLys^9-G^10]
IC50 [1]: 85 nM
direct binding to S375A gp120 (S375A gp120): severely disrupted; also recorded: could not be fitted
reduction in sCD4 inhibitory potency, S375A compared to WT gp120 [2]: 20 fold
IC50 [3]: 110 nM

RINNIPWSEAMM [12p1]
inhibition of F105 antibody binding to mutant gp120 (I423P) [4]: inhibits
IC50 [1]: 1100 nM
IC50 [3]: 1600 nM
binding to gp120 with pocket-filling S375W mutation (mutant gp120 (S375W)): completely abrogated
inhibition of sCD4 binding to mutant gp120 (S375W) (mutant gp120 (S375W)): does not inhibit; also recorded: resistant
